According to US11564969B2, “Immunorhelin compounds for intracellular infections” (ISR IMMUNE SYSTEM REGULATION HOLDING AB (PUBL), priority 2017, dated 2023):
Counter-ions that a name gives are not always drawn. Square brackets hold non-standard residues; d marks the D form. Peptide text beside a SMILES is read from it. pGlu = O=C1CC[C@@H](C(=O)O)N1

Experiment: Solubility analysis in PBS (Analysis Method B)
Assay type: physicochemical
Conditions: pH 7.4
Experimental: The solubility of compounds of the invention was tested as described in the general methods. Solubility was then graded according to a rating between 1 to 5, where 1 is most soluble and 5 is least soluble.
Compound `CC(C)C[C@H](NC(=O)[C@@H](Cc1c[nH]c2ccccc12)NC(=O)[C@H](Cc1ccc(O)cc1)NC(=O)[C@H](CO)NC(=O)[C@H](Cc1c[nH]c2ccccc12)NC(=O)[C@H](Cc1c[nH]cn1)NC(=O)[C@@H]1CCC(=O)N1)C(=O)N[C@@H](Cc1ccc(O)cc1)C(=O)N1CCC[C@H]1C(=O)NCC(N)=O` [Compound 14, pGlu-His-Trp-Ser-Tyr-D-Trp-Leu-Tyr-Pro-Gly-amide] ([pGlu]HWSY[dW]LYPG-NH2) has a Solubility grading of 4. `CC(C)C[C@H](NC(=O)[C@@H](Cc1c[nH]c2ccccc12)NC(=O)[C@H](Cc1c[nH]cn1)NC(=O)[C@H](CO)NC(=O)[C@H](Cc1c[nH]c2ccccc12)NC(=O)[C@H](Cc1c[nH]cn1)NC(=O)[C@@H]1CCC(=O)N1)C(=O)N[C@@H](Cc1ccc(O)cc1)C(=O)N1CCC[C@H]1C(=O)NCC(N)=O` [Compound 16, pGlu-His-Trp-Ser-His-D-Trp-Leu-Tyr-Pro-Gly-amide] ([pGlu]HWSH[dW]LYPG-NH2) showed a Solubility grading of 2. Compound `N=C(N)NCCC[C@H](NC(=O)[C@H](Cc1c[nH]c2ccccc12)NC(=O)[C@@H](Cc1c[nH]c2ccccc12)NC(=O)[C@H](Cc1c[nH]cn1)NC(=O)[C@H](CO)NC(=O)[C@H](Cc1c[nH]c2ccccc12)NC(=O)[C@H](Cc1c[nH]cn1)NC(=O)[C@@H]1CCC(=O)N1)C(=O)N1CCC[C@H]1C(=O)NCC(N)=O` [Compound 20, pGlu-His-Trp-Ser-His-D-Trp-Trp-Arg-Pro-NHEt] has a Solubility grading of 3. `CCNC(=O)[C@@H]1CCCN1C(=O)[C@H](CCCNC(=N)N)NC(=O)[C@H](CC(C)C)NC(=O)[C@@H](Cc1cn(Cc2ccccc2)cn1)NC(=O)[C@H](Cc1ccc(O)cc1)NC(=O)[C@H](CO)NC(=O)[C@H](Cc1c[nH]c2ccccc12)NC(=O)[C@H](Cc1cnc[nH]1)NC(=O)[C@@H]1CCC(=O)N1` [Histrelin TFA, histrelin, reference compound] showed a Solubility grading of 2. `CCNC(=O)[C@@H]1CCCN1C(=O)[C@H](CCCNC(=N)N)NC(=O)[C@H](CC(C)C)NC(=O)[C@@H](Cc1cn(Cc2ccccc2)cn1)NC(=O)[C@H](Cc1ccc(O)cc1)NC(=O)[C@H](CO)NC(=O)[C@H](Cc1c[nH]c2ccccc12)NC(=O)[C@H](Cc1cnc[nH]1)NC(=O)[C@@H]1CCC(=O)N1` [Histrelin acetate, histrelin, reference compound] showed a Solubility grading of 4. In the case of `CCNC(=O)[C@@H]1CCCN1C(=O)[C@H](CCCNC(=N)N)NC(=O)[C@H](CC(C)C)NC(=O)[C@@H](CC(C)C)NC(=O)[C@H](Cc1ccc(O)cc1)NC(=O)[C@H](CO)NC(=O)[C@H](Cc1c[nH]c2ccccc12)NC(=O)[C@H](Cc1c[nH]cn1)NC(=O)[C@@H]1CCC(=O)N1` [Leuprorelin TFA, leuprorelin, reference compound], the Solubility grading is reported as 1. For `CCNC(=O)[C@@H]1CCCN1C(=O)[C@H](CCCNC(=N)N)NC(=O)[C@H](CC(C)C)NC(=O)[C@@H](CC(C)C)NC(=O)[C@H](Cc1ccc(O)cc1)NC(=O)[C@H](CO)NC(=O)[C@H](Cc1c[nH]c2ccccc12)NC(=O)[C@H](Cc1c[nH]cn1)NC(=O)[C@@H]1CCC(=O)N1` [Leuprorelin acetate, leuprorelin, reference compound], the Solubility grading was 2. For `CC(C)C[C@H](NC(=O)[C@@H](Cc1ccc2ccccc2c1)NC(=O)[C@H](Cc1ccc(O)cc1)NC(=O)[C@H](CO)NC(=O)[C@H](Cc1c[nH]c2ccccc12)NC(=O)[C@H](Cc1c[nH]cn1)NC(=O)[C@@H]1CCC(=O)N1)C(=O)N[C@@H](CCCNC(=N)N)C(=O)N1CCC[C@H]1C(=O)NCC(N)=O` [Naferelin TFA, nafarelin, reference compound], the Solubility grading was 1. Work on `CC(C)C[C@H](NC(=O)[C@@H](Cc1ccc2ccccc2c1)NC(=O)[C@H](Cc1ccc(O)cc1)NC(=O)[C@H](CO)NC(=O)[C@H](Cc1c[nH]c2ccccc12)NC(=O)[C@H](Cc1c[nH]cn1)NC(=O)[C@@H]1CCC(=O)N1)C(=O)N[C@@H](CCCNC(=N)N)C(=O)N1CCC[C@H]1C(=O)NCC(N)=O` [Naferelin acetate, nafarelin, reference compound] yielded a Solubility grading of 2.
